This is an account of results in US20230277534A1 (Plexxikon Inc., priority 2011, published 2023).

Test [1] concerns COLO205 colon adenocarcinoma cells (B-Raf V600E mutation). Kind of test: COLO205 cell growth inhibition (ATPlite). The test is classed as cell-based. The settings on record: Homo sapiens, COLO 205, 72 h, 3 days. The procedure, abridged: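 Cells treated for 3 days at 37 °C, 5% CO2 with an 8-point 1:3 dilution series, top final concentration 10 μM, DMSO control. ATPlite luminescence used as a measure of cell number; IC50 from reading versus concentration.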
For orientation: Cellular ATP, detected with luciferase, serves as a proxy for viable cell number.

For test [2], the target named is B-Raf V600E (Homo sapiens (Human), UniProt P15056, V600E). Kind of test: B-Raf V600E kinase biochemical activity assay (AlphaScreen, biotin-MEK1 substrate). The following applies: 100 μM ATP. The procedure, abridged:
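IC50 was derived from AlphaScreen signal (anti-phospho-MEK1/2 antibody with streptavidin donor and Protein A acceptor beads, 3 h) across 8 compound concentrations. The kinase step ran 45 min at room temperature: 0.1 ng B-Raf V600E, 100 nM biotin-MEK1, 100 μM final ATP, pH 7.0 HEPES with MgCl2/MnCl2.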

A value given as a limit tells only on which side of the number the result lay.

Sequence of B-Raf V600E (P15056 whole entry V600E): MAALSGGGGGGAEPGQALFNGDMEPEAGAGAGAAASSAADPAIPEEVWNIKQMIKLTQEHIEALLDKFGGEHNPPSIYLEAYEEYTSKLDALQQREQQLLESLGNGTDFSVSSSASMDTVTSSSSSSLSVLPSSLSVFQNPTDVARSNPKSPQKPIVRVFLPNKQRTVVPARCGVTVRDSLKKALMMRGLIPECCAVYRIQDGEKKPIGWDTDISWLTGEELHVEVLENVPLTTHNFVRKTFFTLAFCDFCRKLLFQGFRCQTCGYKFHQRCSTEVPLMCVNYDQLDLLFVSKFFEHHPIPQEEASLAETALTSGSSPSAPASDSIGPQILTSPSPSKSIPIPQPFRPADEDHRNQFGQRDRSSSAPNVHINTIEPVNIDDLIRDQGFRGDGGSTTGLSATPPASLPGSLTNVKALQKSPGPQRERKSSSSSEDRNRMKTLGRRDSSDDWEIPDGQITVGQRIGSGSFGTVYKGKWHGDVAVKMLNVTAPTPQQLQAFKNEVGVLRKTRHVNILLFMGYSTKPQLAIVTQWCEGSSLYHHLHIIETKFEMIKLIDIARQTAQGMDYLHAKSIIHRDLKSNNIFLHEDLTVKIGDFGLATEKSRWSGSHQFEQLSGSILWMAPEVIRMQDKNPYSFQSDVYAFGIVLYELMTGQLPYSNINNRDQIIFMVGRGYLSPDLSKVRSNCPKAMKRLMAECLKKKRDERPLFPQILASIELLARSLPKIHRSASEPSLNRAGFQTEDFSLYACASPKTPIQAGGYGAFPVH

As a reminder, the IC50 is the concentration that inhibits the measured activity by half. With `O=C(c1c(F)ccc(NS(=O)(=O)N2CCCC2)c1F)c1c[nH]c2ncc(-c3cnc(C4CC4)nc3)cc12` [Compound P-0241, N-[3-[5-(2-cyclopropylpyrimidin-5-yl)-1H-pyrrolo[2,3-b]pyridine-3-carbonyl]-2,4-difluoro-phenyl]pyrrolidine-1-sulfonamide], the values for the IC50 in test [1] and in test [2] were less than 1 µM and less than 0.1 µM, respectively.

As to `CCCNS(=O)(=O)Nc1cccc(C(=O)c2c[nH]c3ncc(-c4cnn(C)c4)cc23)c1F` [Compound P-0242, [2-fluoro-3-(propylsulfamoylamino)phenyl]-[5-(1-methylpyrazol-4-yl)-1H-pyrrolo[2,3-b]pyridin-3-yl]methanone], the IC50 is more than 1 µM in test [1] and less than 0.1 µM in test [2].

Take `O=C(c1cccc(NS(=O)(=O)N2CCCC2)c1F)c1c[nH]c2ncc(-c3ccc(C4(C(=O)O)CC4)cc3)cc12` [Compound P-0243, 1-[4-[3-[2-fluoro-3-(pyrrolidin-1-ylsulfonylamino)benzoyl]-1H-pyrrolo[2,3-b]pyridin-5-yl]phenyl]cyclopropanecarboxylic acid]: the IC50 in test [1] was more than 1 µM; in test [2], less than 0.1 µM.

Turning to `CC1(C)CCN(S(=O)(=O)Nc2cccc(C(=O)c3c[nH]c4ncc(-c5cnc(C6CC6)nc5)cc34)c2F)C1` [Compound P-0246, N-[3-[5-(2-cyclopropylpyrimidin-5-yl)-1H-pyrrolo[2,3-b]pyridine-3-carbonyl]-2-fluoro-phenyl]-3,3-dimethyl-pyrrolidine-1-sulfonamide], the values for the IC50 in test [1] and in test [2] were more than 1 µM and less than 0.1 µM, respectively.

In the case of `CC1CCN(S(=O)(=O)Nc2cccc(C(=O)c3c[nH]c4ncc(-c5cnc(C6CC6)nc5)cc34)c2F)C1` (centres unmarked) [Compound P-0247, N-[3-[5-(2-cyclopropylpyrimidin-5-yl)-1H-pyrrolo[2,3-b]pyridine-3-carbonyl]-2-fluoro-phenyl]-3-methyl-pyrrolidine-1-sulfonamide], the IC50 in test [1] is less than 1 µM; in test [2] it was less than 0.1 µM.

As to `CN(C1CC1)S(=O)(=O)Nc1cccc(C(=O)c2c[nH]c3ncc(-c4cnc(C5CC5)nc4)cc23)c1F` [Compound P-0249, 3-[3-[[cyclopropyl(methyl)sulfamoyl]amino]-2-fluoro-benzoyl]-5-(2-cyclopropylpyrimidin-5-yl)-1H-pyrrolo[2,3-b]pyridine], the results for the IC50 in test [1] and in test [2] were less than 1 µM and less than 0.1 µM, respectively.

As for `CCCNS(=O)(=O)Nc1cccc(C(=O)c2c[nH]c3ncc(-c4cnc(C5CC5)nc4)cc23)c1F` [Compound P-0251, [5-(2-cyclopropylpyrimidin-5-yl)-1H-pyrrolo[2,3-b]pyridin-3-yl]-[2-fluoro-3-(propylsulfamoylamino)phenyl]methanone], the IC50 was more than 1 µM in test [1] and less than 0.1 µM in test [2].

`CN(C1CC1)S(=O)(=O)Nc1ccc(F)c(C(=O)c2c[nH]c3ncc(-c4cnc(C5CC5)nc4)cc23)c1F` [Compound P-0252, 3-[3-[[cyclopropyl(methyl)sulfamoyl]amino]-2,6-difluoro-benzoyl]-5-(2-cyclopropylpyrimidin-5-yl)-1H-pyrrolo[2,3-b]pyridine]: the half-maximal inhibitory concentration (IC50) in test [1] is less than 1 µM; in test [2], less than 0.1 µM.

With `NC(=O)C1(c2ccc(-c3cnc4[nH]cc(C(=O)c5cccc(NS(=O)(=O)N6CCCC6)c5F)c4c3)cc2)CC1` [Compound P-0253, 1-[4-[3-[2-fluoro-3-(pyrrolidin-1-ylsulfonylamino)benzoyl]-1H-pyrrolo[2,3-b]pyridin-5-yl]phenyl]cyclopropanecarboxamide], the IC50 in test [1] is more than 1 µM; in test [2] it was less than 0.1 µM.

On to `CCOc1ncc(-c2cnc3[nH]cc(C(=O)c4c(F)ccc(NS(=O)(=O)N(C)CC)c4F)c3c2)cn1` [Compound P-0256, 5-(2-ethoxypyrimidin-5-yl)-3-[3-[[ethyl(methyl)sulfamoyl]amino]-2,6-difluoro-benzoyl]-1H-pyrrolo[2,3-b]pyridine], for which the IC50 in test [1] is less than 1 µM; in test [2], less than 0.1 µM.
